Measured values: patent US20050123593A1, “Liposomal encapsulation of glycosaminoglycans for the treatment of arthritic joints” (priority 2001, published 2005)

Tests used:
[1] = Freeze fracture microscopy (FF-TEM) of the compositions; type: physicochemical; settings: freeze-fracture transmission electron microscope
Experimental: The compositions were subsequently examined using a freeze-fracture transmission electron microscope (FF-TEM). FF-TEM samples of each formulation were prepared in accordance with techniques described in chapter 5 of “Low Temperature Microscopy and Analysis” by Patrick Echlin (1992). The sample was mounted between thin metal sheets and rapidly cooled with liquid propane to −196° C. The sample was then transferred under liquid nitrogen to a pre-cooled cold stage of a Balzers BAF-301 high vacuum freeze-etch unit (Techno Trade International, Lichtenstein). The sample was fractured at low temperature and etched at −150° C. to remove a surface layer of water. The fracture faces were shadowed at an angle of 45° with platinum to create selective electron contrast. A thin layer of carbon was deposited over the entire fracture surface to create a continuous replica. The replicas were then examined using a JEOL 100CX2 electron microscope (Japanese Electronic Optical Laboratories, Japan).

[2] = in vivo; cited from earlier work
osteoarthritic pain = settings: intra-articular injection; cited from earlier work

Structures seen by FF-TEM [1]	Molecule	overall turnover rate t1/2 [2]	pain relief (osteoarthritic pain)
presence of string like structures	Hyaluronic acid	0.5 to a few	–
–	CCCCCCCCCCCCCCCC(=O)OC[C@H](COP(=O)([O-])OCC[N+](C)(C)C)OC(=O)CCCCCCCCCCCCCCC [DPPC, 1,2-dipalmitoyl-sn-glycero-3-phosphocholine]	–	reduce osteoarthritic pain
